{"source": "ChEMBL document CHEMBL1201862", "about": "“PubChem BioAssay data set” (2004)", "test_in_all_cases": "growth of human tumour cells (NCI), 48 h", "key": {"HCT-116": {"system": "HCT-116"}, "NCI-H460": {"system": "NCI-H460"}, "COLO 205": {"system": "COLO 205"}, "SF-268": {"system": "SF-268"}, "OVCAR-8": {"system": "OVCAR-8"}, "SNB-19": {"system": "SNB-19"}, "SN12C": {"system": "SN12C"}, "MDA-N": {"system": "MDA-N"}, "IGROV-1": {"system": "IGROV-1"}, "KM12": {"system": "KM12"}, "UO-31": {"system": "UO-31"}, "HT-29": {"system": "HT-29"}, "786-0": {"system": "786-0"}, "SF-295": {"system": "SF-295"}, "A549": {"system": "A549"}, "SF-539": {"system": "SF-539"}, "T47D": {"system": "T47D"}, "OVCAR-4": {"system": "OVCAR-4"}, "SK-MEL-5": {"system": "SK-MEL-5"}, "HL-60": {"system": "HL-60"}, "DU-145": {"system": "DU-145"}, "Hs-578T": {"system": "Hs-578T"}, "RPMI-8226": {"system": "RPMI-8226"}, "RXF 393": {"system": "RXF 393"}, "SK-OV-3": {"system": "SK-OV-3"}, "MOLT-4": {"system": "MOLT-4"}, "HCC 2998": {"system": "HCC 2998"}, "EKVX": {"system": "EKVX"}, "U-251": {"system": "U-251"}, "MDA-MB-231": {"system": "MDA-MB-231"}, "MDA-MB-435": {"system": "MDA-MB-435"}, "K562": {"system": "K562"}, "NCI-H23": {"system": "NCI-H23"}, "SK-MEL-2": {"system": "SK-MEL-2"}, "NCI-H522": {"system": "NCI-H522"}, "HOP-92": {"system": "HOP-92"}, "NCI-H226": {"system": "NCI-H226"}, "OVCAR-3": {"system": "OVCAR-3"}, "OVCAR-5": {"system": "OVCAR-5"}, "HCT-15": {"system": "HCT-15"}, "HOP-62": {"system": "HOP-62"}, "MCF7": {"system": "MCF7"}, "LOX IMVI": {"system": "LOX IMVI"}, "PC-3": {"system": "PC-3"}, "SNB-75": {"system": "SNB-75"}, "ACHN": {"system": "ACHN"}, "SR": {"system": "SR"}, "CAKI-1": {"system": "CAKI-1"}, "SK-MEL-28": {"system": "SK-MEL-28"}, "NCI/ADR-RES": {"system": "NCI/ADR-RES"}, "TK-10": {"system": "TK-10"}, "M14": {"system": "M14"}, "UACC-257": {"system": "UACC-257"}, "CCRF-CEM": {"system": "CCRF-CEM"}, "UACC-62": {"system": "UACC-62"}, "SW-620": {"system": "SW-620"}, "BT-549": {"system": "BT-549"}, "Malme-3M": {"system": "Malme-3M"}, "A498": {"system": "A498"}}, "note": "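Step 1: Grow cells in 96-well plates. Step 2: Expose to compound for 48 hours at 5 concentrations. Step 3: Interpolate endpoints linearly; if unreached, use highest concentration. At the GI50, growth is halved.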 Calls of active or inactive are those of the source. Rule as the data show it: active = GI50 up to about 1.1 µM and inactive = higher."}
{"compound": "OC(c1cc2ccccc2o1)c1cc2ccccc2s1", "note": "(stereo not given)", "values": [{"measurement": "GI50", "setting": "HCT-116", "value": "> 10 µM (inactive)"}, {"measurement": "GI50", "setting": "NCI-H460", "value": "> 10 µM (inactive)"}, {"measurement": "GI50", "setting": "COLO 205", "value": "> 10 µM (inactive)"}, {"measurement": "GI50", "setting": "SF-268", "value": "> 10 µM (inactive)"}, {"measurement": "GI50", "setting": "OVCAR-8", "value": "> 10 µM (inactive)"}, {"measurement": "GI50", "setting": "SNB-19", "value": "> 10 µM (inactive)"}, {"measurement": "GI50", "setting": "SN12C", "value": "> 10 µM (inactive)"}, {"measurement": "GI50", "setting": "MDA-N", "value": "3.94 µM (inactive)"}, {"measurement": "GI50", "setting": "IGROV-1", "value": "> 10 µM (inactive)"}, {"measurement": "GI50", "setting": "KM12", "value": "7.23 µM (inactive)"}, {"measurement": "GI50", "setting": "UO-31", "value": "> 10 µM (inactive)"}, {"measurement": "GI50", "setting": "HT-29", "value": "> 10 µM (inactive)"}, {"measurement": "GI50", "setting": "786-0", "value": "> 10 µM (inactive)"}, {"measurement": "GI50", "setting": "SF-295", "value": "> 10 µM (inactive)"}, {"measurement": "GI50", "setting": "A549", "value": "> 10 µM (inactive)"}, {"measurement": "GI50", "setting": "SF-539", "value": "> 10 µM (inactive)"}, {"measurement": "GI50", "setting": "T47D", "value": "> 10 µM (inactive)"}, {"measurement": "GI50", "setting": "OVCAR-4", "value": "> 10 µM (inactive)"}, {"measurement": "GI50", "setting": "SK-MEL-5", "value": "> 10 µM (inactive)"}, {"measurement": "GI50", "setting": "HL-60", "value": "> 10 µM (inactive)"}, {"measurement": "GI50", "setting": "DU-145", "value": "> 10 µM (inactive)"}, {"measurement": "GI50", "setting": "Hs-578T", "value": "9.53 µM (inactive)"}, {"measurement": "GI50", "setting": "RPMI-8226", "value": "> 10 µM (inactive)"}, {"measurement": "GI50", "setting": "RXF 393", "value": "> 10 µM (inactive)"}, {"measurement": "GI50", "setting": "SK-OV-3", "value": "> 10 µM (inactive)"}, {"measurement": "GI50", "setting": "MOLT-4", "value": "> 10 µM (inactive)"}, {"measurement": "GI50", "setting": "HCC 2998", "value": "> 10 µM (inactive)"}, {"measurement": "GI50", "setting": "EKVX", "value": "7.23 µM (inactive)"}, {"measurement": "GI50", "setting": "U-251", "value": "> 10 µM (inactive)"}, {"measurement": "GI50", "setting": "MDA-MB-231", "value": "> 10 µM (inactive)"}, {"measurement": "GI50", "setting": "MDA-MB-435", "value": "3.78 µM (inactive)"}, {"measurement": "GI50", "setting": "K562", "value": "4.57 µM (inactive)"}, {"measurement": "GI50", "setting": "NCI-H23", "value": "> 10 µM (inactive)"}, {"measurement": "GI50", "setting": "SK-MEL-2", "value": "> 10 µM (inactive)"}, {"measurement": "GI50", "setting": "NCI-H522", "value": "> 10 µM (inactive)"}, {"measurement": "GI50", "setting": "HOP-92", "value": "> 10 µM (inactive)"}, {"measurement": "GI50", "setting": "NCI-H226", "value": "> 10 µM (inactive)"}, {"measurement": "GI50", "setting": "OVCAR-3", "value": "> 10 µM (inactive)"}, {"measurement": "GI50", "setting": "OVCAR-5", "value": "> 10 µM (inactive)"}, {"measurement": "GI50", "setting": "HCT-15", "value": "> 10", "unit": "µM"}, {"measurement": "GI50", "setting": "HOP-62", "value": "> 10 µM (inactive)"}, {"measurement": "GI50", "setting": "MCF7", "value": "9.44 µM (inactive)"}, {"measurement": "GI50", "setting": "LOX IMVI", "value": "> 10 µM (inactive)"}, {"measurement": "GI50", "setting": "PC-3", "value": "8.57 µM (inactive)"}, {"measurement": "GI50", "setting": "SNB-75", "value": "> 10 µM (inactive)"}, {"measurement": "GI50", "setting": "ACHN", "value": "> 10 µM (inactive)"}, {"measurement": "GI50", "setting": "SR", "value": "> 10 µM (inactive)"}, {"measurement": "GI50", "setting": "CAKI-1", "value": "> 10 µM (inactive)"}, {"measurement": "GI50", "setting": "SK-MEL-28", "value": "> 10 µM (inactive)"}, {"measurement": "GI50", "setting": "NCI/ADR-RES", "value": "> 10 µM (inactive)"}, {"measurement": "GI50", "setting": "TK-10", "value": "> 10 µM (inactive)"}, {"measurement": "GI50", "setting": "M14", "value": "> 10 µM (inactive)"}, {"measurement": "GI50", "setting": "UACC-257", "value": "> 10 µM (inactive)"}, {"measurement": "GI50", "setting": "CCRF-CEM", "value": "> 10 µM (inactive)"}, {"measurement": "GI50", "setting": "UACC-62", "value": "> 10 µM (inactive)"}, {"measurement": "GI50", "setting": "SW-620", "value": "> 10 µM (inactive)"}]}
{"compound": "O=S(=O)(c1ccc(NC(=S)N/N=C/c2ccccc2O)cc1)N1CCCCC1", "values": [{"measurement": "GI50", "setting": "COLO 205", "value": "0.773 µM (active)"}, {"measurement": "GI50", "setting": "SF-268", "value": "0.0446 µM (active)"}, {"measurement": "GI50", "setting": "SNB-19", "value": "0.879 µM (active)"}, {"measurement": "GI50", "setting": "IGROV-1", "value": "1.73 µM (inactive)"}, {"measurement": "GI50", "setting": "UO-31", "value": "1.29 µM (inactive)"}, {"measurement": "GI50", "setting": "HT-29", "value": "7.73 µM (inactive)"}, {"measurement": "GI50", "setting": "786-0", "value": "0.188 µM (active)"}, {"measurement": "GI50", "setting": "SF-295", "value": "0.0656 µM (active)"}, {"measurement": "GI50", "setting": "A549", "value": "0.255 µM (active)"}, {"measurement": "GI50", "setting": "SF-539", "value": "0.326 µM (active)"}, {"measurement": "GI50", "setting": "T47D", "value": "0.419 µM (active)"}, {"measurement": "GI50", "setting": "SK-MEL-5", "value": "< 0.01 µM (active)"}, {"measurement": "GI50", "setting": "BT-549", "value": "37.8 µM (inactive)"}, {"measurement": "GI50", "setting": "Hs-578T", "value": "1.91 µM (inactive)"}, {"measurement": "GI50", "setting": "RPMI-8226", "value": "0.214 µM (active)"}, {"measurement": "GI50", "setting": "RXF 393", "value": "56.8 µM (inactive)"}, {"measurement": "GI50", "setting": "SK-OV-3", "value": "0.39 µM (active)"}, {"measurement": "GI50", "setting": "EKVX", "value": "1.29 µM (inactive)"}, {"measurement": "GI50", "setting": "MDA-MB-435", "value": "0.302 µM (active)"}, {"measurement": "GI50", "setting": "K562", "value": "0.341 µM (active)"}, {"measurement": "GI50", "setting": "NCI-H23", "value": "0.281 µM (active)"}, {"measurement": "GI50", "setting": "SK-MEL-2", "value": "0.459 µM (active)"}, {"measurement": "GI50", "setting": "NCI-H522", "value": "1.61 µM (inactive)"}, {"measurement": "GI50", "setting": "HOP-92", "value": "12.2 µM (inactive)"}, {"measurement": "GI50", "setting": "NCI-H226", "value": "0.151 µM (active)"}, {"measurement": "GI50", "setting": "OVCAR-3", "value": "< 0.0498 µM (active)"}, {"measurement": "GI50", "setting": "OVCAR-5", "value": "0.269 µM (active)"}, {"measurement": "GI50", "setting": "HCT-15", "value": "< 0.01", "unit": "µM"}, {"measurement": "GI50", "setting": "HOP-62", "value": "0.114 µM (active)"}, {"measurement": "GI50", "setting": "MCF7", "value": "0.255 µM (active)"}, {"measurement": "GI50", "setting": "LOX IMVI", "value": "< 0.01 µM (active)"}, {"measurement": "GI50", "setting": "PC-3", "value": "0.191 µM (active)"}, {"measurement": "GI50", "setting": "SNB-75", "value": "1.36 µM (inactive)"}, {"measurement": "GI50", "setting": "ACHN", "value": "< 0.01 µM (active)"}, {"measurement": "GI50", "setting": "Malme-3M", "value": "0.181 µM (active)"}, {"measurement": "GI50", "setting": "SK-MEL-28", "value": "1.21 µM (inactive)"}, {"measurement": "GI50", "setting": "NCI/ADR-RES", "value": "0.0676 µM (active)"}, {"measurement": "GI50", "setting": "A498", "value": "0.264 µM (active)"}, {"measurement": "GI50", "setting": "TK-10", "value": "< 0.0457 µM (active)"}, {"measurement": "GI50", "setting": "M14", "value": "0.0771 µM (active)"}, {"measurement": "GI50", "setting": "UACC-257", "value": "0.735 µM (active)"}, {"measurement": "GI50", "setting": "CCRF-CEM", "value": "< 0.023 µM (active)"}, {"measurement": "GI50", "setting": "UACC-62", "value": "< 0.01 µM (active)"}, {"measurement": "GI50", "setting": "SW-620", "value": "< 0.01 µM (active)"}]}
